This note sets out measurements from patent US20120202793A1, “RHO KINASE INHIBITORS” (priority 2009, published 2012).

For orientation: IC50 means the midpoint of a concentration-inhibition curve. A higher IC50 goes with a need for much substance.

The target of one assay is ROCK 1 (Homo sapiens, UniProt Q13464). Briefly: Inhibition of Rho kinase ROCK 1 (Tables 2.1-2.4). The assay is classed as biochemical. The method, then:
(§1) Inhibitory activity for Rho kinase was determined for examples of compounds of the present invention. Inhibition of Rho kinase can be assayed as described. For each of these compounds their inhibitory activity for both ROCK1 and ROCK2 was determined.
(§2) The IC50 values (in μM) for each of these compounds show a selectivity for inhibiting ROCK2.

The target of a further assay is ROCK 2 (Homo sapiens, UniProt O75116). Briefly: Inhibition of Rho kinase ROCK 2 (Tables 2.1-2.4). Format: biochemical. The method, then: as §1, §2
The subject of the next assay is ROCK2. Briefly: Inhibition of phosphorylation of S6 Long Peptide by ROCK1 and ROCK2 (33P filter assay), selective inhibition of ROCK2. The assay is classed as biochemical. As to the method:
Filtration was done in 96 well filter plates containing phosphocellulose cation exchange paper (Millipore, Cat#MAPHNOBIO).
The reaction was incubated for 40 minutes at room temperature and stopped with 25 ul 3% phosphoric acid. Reaction was then transferred to a filter plate wet with 75 mM phosphoric acid. The plate was then washed three times with 75 mM phosphoric acid and once with methanol. […] IC50 values were determined using Graphpad Prism.

A short description of assay [1]: Attenuation of weight gain in ApoE (−/−) and C57BL/6 mice on high fat diet. Format: in vivo. Conditions: 0.1% in the diet from the fourth week, FIG. 15. From the text: (§3) In a different experiment, ApoE (−/−) deficient mice were compared with C57BL/6 mice. All mice were initially fed a control diet for one week, and a high fat diet for the following 11 weeks. At the start of the fourth week, half of the C57BL/6 mice and half of the ApoE (−/−) mice were supplemented with 0.1% SLx-2119 in the diet.

Assay [2] in a line: Glucose tolerance in C57BL/6 mice after 54 days on diet. The assay is classed as in vivo. The conditions noted are these: high fat diet with compound, meal after overnight fast, FIG. 14. From the text:
Separate groups of C57BL/6 mice were fed as above, and evaluated for glucose tolerance after 54 days. All mice were fed the same meal |what is the meal| after an overnight fast. […] (FIG. 14)

A short description of assay [3]: Attenuation of hyperinsulinemia in Leptin deficient (ob−/ob−) mice. The assay is classed as in vivo. From the text: Leptin deficient (ob^−/ob^−) mice were maintained on a normal (control), or a high fat diet with or without SLx-2119. […] Attenuation of hyperinsulinemia was similarly observed in ob^−/ob^− mice maintained on a low fat diet (FIG. 26).
Assay [4] can be described thus: Fasting insulin and glucose levels in ApoE (−/−) and C57BL/6 mice on high fat diet. The assay is classed as in vivo.
From the text: as §3
The reductions in fasting insulin levels were accompanied by reductions in fasting blood glucose levels. (FIG. 18, bottom).

The nature of assay [5]: Body weight of rats fed a low fat diet. The assay is classed as in vivo. From the text:
The effect of SLx-2119 supplementation on body weight of rats fed a low fat diet was also investigated.

A short description of assay [6]: Attenuation of weight gain, C57BL/6 mice consuming a high fat diet. The assay is classed as in vivo. As to the method: The ability of SLx-2119 to limit weight gain was evaluated by administration to C57BL/6, ApoE knockout, and leptin deficient mice as part of a high fat or low fat diet.
Three groups of 10 mice each were initially fed a control diet for a week. Two groups were then switched to a high fat diet in which 42% of the calories were from fat. SLx-2119 was included in the diet of one of the two groups. The third group continued on the control diet. Fasting glucose levels were measured during the first week (all groups consuming the control diet), and again during the third and sixth week.

Assay [7] can be described thus: Attenuation of weight gain in Leptin deficient (ob−/ob−) mice, low fat or high fat diet. Format: in vivo. As to the method: The effect of SLx-2119 on weight gain in Leptin deficient (ob^−/ob^−) mice fed a low fat (normal) or high fat diet was also measured. […] The leptin deficient mice gained considerably more weight than normal 057BL/6 mice fed the low fat diet.
The leptin deficient mice consuming the high fat diet gained weigh at about four times the rate of normal mice on a low fat diet. […] As with the low fat diet, caloric intake was quite a bit higher in the ob^−/ob^− mice, whether or not they received SLx-2119. (FIG. 23).

Chain of ROCK 2 (O75116 whole entry, species assumed): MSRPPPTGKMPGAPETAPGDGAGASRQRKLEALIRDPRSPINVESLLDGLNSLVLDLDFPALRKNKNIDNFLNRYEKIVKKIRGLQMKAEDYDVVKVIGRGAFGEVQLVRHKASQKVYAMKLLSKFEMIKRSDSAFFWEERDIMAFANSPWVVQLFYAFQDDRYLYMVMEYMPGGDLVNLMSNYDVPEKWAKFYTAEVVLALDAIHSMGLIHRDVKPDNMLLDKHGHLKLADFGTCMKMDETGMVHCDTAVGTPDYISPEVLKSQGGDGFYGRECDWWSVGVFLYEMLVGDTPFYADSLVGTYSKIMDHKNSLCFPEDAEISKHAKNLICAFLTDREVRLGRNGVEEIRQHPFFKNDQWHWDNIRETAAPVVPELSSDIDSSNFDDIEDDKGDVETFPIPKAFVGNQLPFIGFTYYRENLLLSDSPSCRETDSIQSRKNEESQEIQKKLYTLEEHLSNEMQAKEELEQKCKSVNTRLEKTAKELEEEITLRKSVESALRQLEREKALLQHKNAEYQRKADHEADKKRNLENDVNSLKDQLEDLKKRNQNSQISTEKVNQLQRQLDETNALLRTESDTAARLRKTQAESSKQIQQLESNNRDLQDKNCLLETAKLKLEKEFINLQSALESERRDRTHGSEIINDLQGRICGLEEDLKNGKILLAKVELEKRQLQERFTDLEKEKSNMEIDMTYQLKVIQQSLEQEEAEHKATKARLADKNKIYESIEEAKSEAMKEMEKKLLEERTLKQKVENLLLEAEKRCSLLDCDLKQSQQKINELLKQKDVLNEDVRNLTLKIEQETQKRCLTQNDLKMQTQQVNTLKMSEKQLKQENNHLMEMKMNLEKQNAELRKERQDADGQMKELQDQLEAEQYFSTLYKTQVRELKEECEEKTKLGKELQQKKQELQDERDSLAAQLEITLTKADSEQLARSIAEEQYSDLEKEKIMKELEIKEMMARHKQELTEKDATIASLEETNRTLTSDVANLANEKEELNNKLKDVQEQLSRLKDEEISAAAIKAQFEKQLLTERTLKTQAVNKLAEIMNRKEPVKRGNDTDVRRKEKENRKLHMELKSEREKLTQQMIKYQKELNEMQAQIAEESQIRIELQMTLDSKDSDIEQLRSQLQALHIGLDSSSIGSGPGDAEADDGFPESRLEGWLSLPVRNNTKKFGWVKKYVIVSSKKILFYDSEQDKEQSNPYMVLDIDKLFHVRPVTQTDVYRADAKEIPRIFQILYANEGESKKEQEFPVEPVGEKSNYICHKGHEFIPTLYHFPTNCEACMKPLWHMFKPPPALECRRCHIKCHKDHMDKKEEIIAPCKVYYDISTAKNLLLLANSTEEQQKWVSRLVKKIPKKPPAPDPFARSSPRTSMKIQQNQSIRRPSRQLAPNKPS
Chain of ROCK 1 (Q13464 whole entry, species assumed): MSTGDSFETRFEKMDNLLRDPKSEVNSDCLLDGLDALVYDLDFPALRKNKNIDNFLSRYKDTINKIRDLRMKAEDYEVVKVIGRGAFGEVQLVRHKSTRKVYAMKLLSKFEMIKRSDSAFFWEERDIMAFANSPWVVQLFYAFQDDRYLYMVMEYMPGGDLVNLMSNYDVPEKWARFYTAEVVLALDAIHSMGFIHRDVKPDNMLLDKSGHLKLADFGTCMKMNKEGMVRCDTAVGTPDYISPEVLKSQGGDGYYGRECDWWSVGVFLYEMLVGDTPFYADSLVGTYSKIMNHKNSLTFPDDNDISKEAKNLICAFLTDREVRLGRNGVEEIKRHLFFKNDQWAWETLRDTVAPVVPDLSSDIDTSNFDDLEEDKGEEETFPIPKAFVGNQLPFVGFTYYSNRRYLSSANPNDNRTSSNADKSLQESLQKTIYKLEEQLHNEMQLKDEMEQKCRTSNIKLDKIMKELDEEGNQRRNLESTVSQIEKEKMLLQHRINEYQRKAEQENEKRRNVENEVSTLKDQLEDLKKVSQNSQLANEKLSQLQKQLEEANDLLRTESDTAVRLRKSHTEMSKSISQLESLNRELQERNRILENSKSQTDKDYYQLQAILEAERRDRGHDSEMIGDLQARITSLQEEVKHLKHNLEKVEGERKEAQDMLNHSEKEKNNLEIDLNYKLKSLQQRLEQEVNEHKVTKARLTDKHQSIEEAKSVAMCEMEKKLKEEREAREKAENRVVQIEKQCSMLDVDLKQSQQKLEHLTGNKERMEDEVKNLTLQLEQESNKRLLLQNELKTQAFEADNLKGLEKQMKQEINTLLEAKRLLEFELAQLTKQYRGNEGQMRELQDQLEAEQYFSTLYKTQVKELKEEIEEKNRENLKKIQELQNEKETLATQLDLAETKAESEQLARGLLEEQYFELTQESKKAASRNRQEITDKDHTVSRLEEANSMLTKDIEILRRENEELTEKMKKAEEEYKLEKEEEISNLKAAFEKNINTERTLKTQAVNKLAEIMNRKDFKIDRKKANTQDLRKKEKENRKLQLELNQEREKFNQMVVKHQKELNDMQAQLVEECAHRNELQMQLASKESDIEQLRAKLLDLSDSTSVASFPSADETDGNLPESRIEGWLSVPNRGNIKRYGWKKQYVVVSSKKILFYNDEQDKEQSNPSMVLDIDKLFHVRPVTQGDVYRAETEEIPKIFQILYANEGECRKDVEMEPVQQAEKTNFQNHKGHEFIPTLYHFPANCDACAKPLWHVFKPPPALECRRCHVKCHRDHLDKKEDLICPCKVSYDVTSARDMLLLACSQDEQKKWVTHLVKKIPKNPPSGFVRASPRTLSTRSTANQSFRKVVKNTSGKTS

For `COCCNC(=O)COc1cccc(-c2nc(Nc3ccc4[nH]ncc4c3)c3ccccc3n2)c1` [Example 54, 2-(3-(4-(1H-indazol-5-ylamino)quinazolin-2-yl)phenoxy)-N-(2-methoxyethyl)acetamide], the IC50 against ROCK 1 was over 10000 nM; at ROCK 2, 150 nM.

`CCCC(=O)Nc1cccc(-c2nc(Nc3ccc4[nH]ncc4c3)c3ccc(OCCOC)cc3n2)c1` [Example 263]: the IC50 was over 3000 nM against ROCK 1 and 90 nM at ROCK 2.

As for `CCCC(=O)Nc1cccc(-c2nc(Nc3ccc4[nH]ncc4c3)c3cc(OCCN(C)C)ccc3n2)c1` [Example 141, N-(3-(4-(1H-indazol-5-ylamino)-6-(2-(dimethylamino)ethoxy)quinazolin-2-yl)phenyl)butyramide], the IC50 on ROCK 1 was over 1000 nM; against ROCK 2, 40 nM.

Take `C[C@@H](N)[C@H]1CC[C@H](C(=O)Nc2ccncc2)CC1` [Example Y-27632]: the “inhibition of ROCK2 compared with ROCK1” value with ROCK2 is recorded as “to the same extent”.

Turning to `CC(C)NC(=O)COc1cccc(-c2nc(Nc3ccc4[nH]ncc4c3)c3ccccc3n2)c1` [SLx-2119], the figures for the “weight gain less than in mice that did not receive the supplement” value in assay [1] (ApoE (−/−) mice) and in assay [1] (C57BL/6 mice) were 50% and 33%, respectively. For the same molecule, in assay [2], the “glucose levels following feeding” value is given as “increased relative to mice maintained on the control diet, but not as high as in mice that did not receive SLx-2119”. In assay [2], the “recovery of glucose levels” value is listed as “quickly recovered to a normal level”. Also, the “fasting blood glucose levels” value in assay [3] (high fat diet, FIG. 25) is recorded as “reduced to normal levels”; in assay [4] (C57BL/6 and ApoE (−/−) mice, FIG. 18 bottom), “reductions”. For the same molecule, the fasting insulin levels entry in assay [3] (high fat diet, FIG. 25) is given as “significantly reduced”; in assay [4] (normal C57BL/6 mice, FIG. 18 top) it was “reduction”. For the same molecule, in assay [3] (low fat diet, FIG. 26), the hyperinsulinemia result is “Attenuation”. The “reduction of body weight gain” value in assay [5] (FIG. 27) is “about 6%”. Further, in [5] (FIG. 28), the caloric intake entry was “little or no change”. For the same molecule, the weight gain result in [6] (high fat diet (42% of calories from fat) supplemented with compound, versus control diet mice, FIG. 11) was “not distinguishable from the control mice”; in [7] (normal C57BL/6 mice, low fat diet, FIG. 19), “no distinguishable effect”; in [7] (ob−/ob− mice, high fat diet, FIG. 22) it was “reduced by half”; in [7] (ob−/ob− mice, low fat diet, versus ob−/ob− mice without compound, FIG. 19) it was “gained only half as much weight”. Moreover, the “average caloric intake of untreated high fat diet mice relative to control and treated groups” value in [6] (high fat diet, FIG. 12) was “only slightly higher”.

Turning to `O=C(COc1cccc(-c2nc(Nc3ccc4[nH]ncc4c3)c3ccccc3n2)c1)Nc1cccnc1` [Example 55, 2-(3-(4-(1H-indazol-5-ylamino)quinazolin-2-yl)phenoxy)-N-(pyridin-3-yl)acetamide], the results for the IC50 at ROCK 1 and on ROCK 2 were over 10000 nM and 90 nM, respectively.

Consider `COc1cc2nc(-c3cccc(NC(=O)CN4CCOCC4)c3)nc(Nc3ccc4[nH]ncc4c3)c2cc1OCCN1CCCC1` [Example 167, N-(3-(4-(1H-Indazol-5-ylamino)-7-methoxy-6-(2-(pyrrolidin-1-yl)ethoxy)quinazolin-2-yl)phenyl)-2-morpholinoacetamide], for which the IC50 is over 3000 nM against ROCK 1 and 60 nM against ROCK 2.

On to `CC(=O)Oc1cccc(-c2nc(Nc3ccc4[nH]ncc4c3)c3ccccc3n2)c1` [Example 272], for which the IC50 on ROCK 1 was over 10000 nM; on ROCK 2 it was 570 nM.

As to `NC(=O)COc1cccc(-c2nc(Nc3ccc4[nH]ncc4c3)c3ccccc3n2)c1` [Example 84, 2-(3-(4-(1H-indazol-5-ylamino)quinazolin-2-yl)phenoxy)acetamide], the IC50 on ROCK 1 turned out to be 2600 nM; against ROCK 2, 520 nM.

For `CCCC(=O)Nc1cccc(-c2nc(Nc3ccc4[nH]ncc4c3)c3cc(OCCCN4CCOCC4)c(OC)cc3n2)c1` [Example 160, N-(3-(4-(1H-indazol-5-ylamino)-7-methoxy-6-(3-morpholinopropoxy)quinazolin-2-yl)phenyl)butyramide], the IC50 was over 3000 nM against ROCK 1 and 50 nM against ROCK 2.
